Measured values from patent publication US9271978B2 (Zenith Epigenetics Corp., priority 2012, dated 2016).

Key:
Design in all cases: key: Active: Compounds with an IC50 value less than 30 μM were deemed to be active.; Not Active: Compounds with an IC50 value less than 30 μM were deemed to be active
[1] = biological target: T1, Brd4 bromodomain 1 (BRD4(1)) (Homo sapiens, UniProt O60885); experiment: Inhibition of tetra-acetylated histone H4 binding to Brd4 bromodomain 1 (TR-FRET); conditions: tetra-acetylated histone H4 peptide, active = IC50 <30 μM
T1 construct: Illustrative results with the first bromodomain of Brd4; made in house; host or cells: E. coli BL21 (DE3)
Procedure, shortened: (§1)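 IC50 values come from dose-response curves of the 665 nm to 620 nm TR-FRET signal decrease, measured after 2 h at room temperature. Reactions contained 200 nM E. coli-expressed His-tagged bromodomain, 25-50 nM biotinylated tetra-acetylated H4 peptide, Eu-streptavidin plus XL665 anti-His antibody, with 30 mM HEPES pH 7.4, 320 mM KF and 0.2% DMSO.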

[2] = biological target: T2, second bromodomain of Brd2 (BRD2(2)) (Homo sapiens, UniProt P25440); experiment: Inhibition of tetra-acetylated histone H4 binding to Brd2 bromodomain 2 (TR-FRET); conditions: tetra-acetylated histone H4 peptide, active = IC50 <30 μM
T2 construct: made in house; host or cells: E. coli BL21 (DE3)
Procedure, shortened: as §1

c-myc = experiment: Inhibition of c-myc expression in MV4-11 cells (mRNA, real-time PCR); assay type: cell-based; conditions: Human AML MV4-11 cells, 3 h incubation
Procedure: MV4-11 cells (2.5×10^4 cells) were plated in 96 well U-bottom plates with test compound or DMSO (0.1%), and incubated for 3 h at 37° C. Cells were then harvested by centrifugation, lysed, and mRNA was isolated using the mRNA catcher plus kit (Invitrogen). Reverse transcription of the mRNA and duplex amplification of the c-myc and cyclophilin cDNAs was performed using the RNA Ultrasense kit (Invitrogen) and a ViiA7 real-time PCR machine (Applied Biosystems). IC50 values were determined from a dose response curve.

[3] = tested on: human AML MV-4-11 (CRL-9591) cells; experiment: Inhibition of cell proliferation in MV4-11 cells; assay type: cell-based; conditions: human AML MV-4-11 cells, 72 h; active = IC50 <30 μM
Procedure, shortened: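 IC50 values come from blank-corrected proliferation relative to DMSO controls, read as 490 nm absorbance 3–4 h after CellTiter Aqueous One addition. Before that, cells seeded at 5×10^4/well were exposed for 72 h (37° C, 5% CO2) to triplicate two-fold compound dilutions spanning 30–0.2 μM.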

hIL-6 mRNA = experiment: Inhibition of hIL-6 mRNA transcription in U937 cells; assay type: cell-based, human; conditions: LPS stimulation, active = IC50 <30 μM
Procedure, shortened: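 Readout is one-step real-time PCR of hIL-6 mRNA, normalized to an internal control and given as fold induction versus control. Cells: PMA (60 ng/mL, 3 days)-differentiated U937 macrophages, compound added 1 h before 1 ug/mL LPS, harvested after 3 h at 37° C.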

T2 sequence (P25440 344-453 limits assumed): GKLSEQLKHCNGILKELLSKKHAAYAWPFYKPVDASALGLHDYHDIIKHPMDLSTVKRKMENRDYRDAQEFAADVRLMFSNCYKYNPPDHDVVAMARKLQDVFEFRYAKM

Row | Structure (SMILES) | FRET activity (IC50 <30 μM) BRD4(1) [1] | FRET activity (IC50 <30 μM) BRD2(2) [2] | c-myc activity (IC50 <30 μM) (c-myc) | Cell Proliferation activity (IC50 <30 μM) [3] | IL-6 activity (IC50 <30 μM) (hIL-6 mRNA)
1 | Cc1noc(C)c1-c1ccc(=O)n(Cc2ccc(C#N)cc2)c1 [Example 137, 4-((5-(3,5-Dimethylisoxazol-4-yl)-2-oxopyridin-1(2H)-yl)methyl)benzonitrile] | Active | Active | Active | Active | Active
2 | COc1cc(-c2ccc(=O)n(Cc3cccc(C#N)c3)n2)cc(OC)c1OC [Example 15, 3-((6-Oxo-3-(3,4,5-trimethoxyphenyl)pyridazin-1(6H)-yl)methyl)benzonitrile] | Active | Active | Not Active | Not Active | Active
3 | Cc1noc(C)c1-c1ccc(=O)n(C(C)c2cccc(Cl)c2)c1 (centres unmarked) [Example 113, 1-(1-(3-Chlorophenyl)ethyl)-5-(3,5-dimethylisoxazol-4-yl)pyridin-2(1H)-one] | Active | Active | Active | Active | Active
4 | Cc1noc(C)c1-c1ccc(=O)n(Cc2ccccc2C(F)(F)F)c1 [Example 123, 5-(3,5-Dimethylisoxazol-4-yl)-1-(2-(trifluoromethyl)benzyl)pyridin-2(1H)-one] | Active | Active | Active | Active | Active
5 | Cc1noc(C)c1-c1ccc(=O)n(C(C)c2ccc(F)cc2)c1 (centres unmarked) [Example 101, 5-(3,5-Dimethylisoxazol-4-yl)-1-(1-(4-fluorophenyl)ethyl)pyridin-2(1H)-one] | Active | Active | Active | Active | Active
6 | Cc1noc(C)c1-c1ccc(=O)n(Cc2cccc(C(F)(F)F)c2)c1 [Example 4, 5-(3,5-Dimethylisoxazol-4-yl)-1-(3-(trifluoromethyl)benzyl)pyridin-2(1H)-one] | Active | Active | Active | Active | Active
7 | Cc1noc(C)c1-c1ccc(=O)n(C(C)c2ccccc2F)c1 (centres unmarked) [Example 124, 5-(3,5-Dimethylisoxazol-4-yl)-1-(1-(2-fluorophenyl)ethyl)pyridin-2(1H)-one] | Active | Active | Active | Active | Active
8 | Cc1noc(C)c1-c1ccc(=O)n(Cc2cccc(Cl)c2)c1 [Example 126, 1-(3-Chlorobenzyl)-5-(3,5-dimethylisoxazol-4-yl)pyridin-2(1H)-one] | Active | Active | Active | Active | Active
9 | Cc1noc(C)c1-c1ccc(=O)n(Cc2cc(F)c(F)c(F)c2)c1 [Example 142, 5-(3,5-Dimethylisoxazol-4-yl)-1-(3,4,5-trifluorobenzyl)pyridin-2(1H)-one] | Active | Active | Active | Active | Active
10 | Cc1noc(C)c1-c1ccc(=O)n(Cc2ccccc2Cl)c1 [Example 127, 1-(2-Chlorobenzyl)-5-(3,5-dimethylisoxazol-4-yl)pyridin-2(1H)-one] | Active | Active | Active | Active | Active
11 | Cc1noc(C)c1-c1ccc(=O)n(Cc2ccc(C(F)(F)F)cc2)n1 [Example 91, 6-(3,5-Dimethylisoxazol-4-yl)-2-(4-(trifluoromethyl)benzyl)pyridazin-3(2H)-one] | Active | Active | Not Active | Active | Not Active
12 | Cc1noc(C)c1-c1cc(F)c(=O)n(Cc2ccccc2)c1 [Example 63, 1-Benzyl-5-(3,5-dimethylisoxazol-4-yl)-3-fluoropyridin-2(1H)-one] | Active | Active | Active | Active | Active
13 | Cc1noc(C)c1-c1cc(N)c(=O)n(C(C)c2ccccc2)c1 (centres unmarked) [Example 263, 3-amino-5-(3,5-dimethylisoxazol-4-yl)-1-(1-phenylethyl)pyridin-2(1H)-one] | Active | – | Active | Active | Active
14 | Cc1noc(C)c1-c1cc(N)c(=O)n(Cc2ncccc2Cl)c1 [Example 254, 3-amino-1-((3-chloropyridin-2-yl)methyl)-5-(3,5-dimethylisoxazol-4-yl)pyridin-2(1H)-one] | Active | – | Active | Active | Active
15 | Cc1noc(C)c1-c1cc(N)c(=O)n(Cc2ccc(Br)c(C#N)c2)c1 [Example 272, 5-((3-amino-5-(3,5-dimethylisoxazol-4-yl)-2-oxopyridin-1(2H)-yl)methyl)-2-bromobenzonitrile] | Active | – | Active | Active | Active
16 | Cc1noc(C)c1-c1cc(N)c(=O)n(Cc2ccc(I)cc2)c1 [Example 267, 3-amino-5-(3,5-dimethylisoxazol-4-yl)-1-(4-iodobenzyl)pyridin-2(1H)-one] | Active | – | Active | Active | Active
17 | Cc1noc(C)c1-c1cc(N)c(=O)n(Cc2ccc(C#N)c(Br)c2)c1 [Example 273, 4-((3-amino-5-(3,5-dimethylisoxazol-4-yl)-2-oxopyridin-1(2H)-yl)methyl)-2-bromobenzonitrile] | Active | – | Active | Active | Active
